The source made the active and inactive calls. The calls are words filed in the database; no cut-off is given here.
Key:
[1] = Noncompetitive inhibition of P-gp assessed as reduction in P-gp-associated ATPase activity by Pgp-GloTM Assay
K652 = test: Inhibition of P-gp-mediated rhodamine 123 efflux in doxorubicin-resistant human […] cells at 100 uM treated for 1 hr measured after washout by FACS flow cytometry relative to verapamil; type: cell-based
[2] = Competitive inhibition of P-gp assessed as P-gp-associated ATPase activity at 10 uM by Pgp-GloTM Assay

Row | SMILES | inhibition [1] | fold change (FC) (K652) | inhibition [2]
1 | CN(C)[C@@H](CC(C)(C)C)C(=O)N1Cc2ccccc2C[C@H]1C(=O)NCCCC[C@H](NC(=O)[C@@H]1Cc2ccccc2CN1C(=O)[C@H](CC(C)(C)C)N(C)C)C(N)=O | Active | 2 | Active
2 | CN(C)[C@@H](CC(C)(C)C)C(=O)N1Cc2ccccc2C[C@H]1C(=O)NCCCC[C@@H](NC(=O)[C@@H]1Cc2ccccc2CN1C(=O)[C@H](CC(C)(C)C)N(C)C)C(N)=O | – | 2 | –
